Laboratory results taken from patent US20190002915A1, “COMPOSITIONS AND METHODS FOR REGULATABLE ANTIBODY EXPRESSION” (The Trustees of the University of Pennsylvania, priority 2015, published 2019).

Experiments:
[1] = test system: Z12i promoter ffLuc reporter in HEK293 cells; assay: ffLuc reporter induction under Z12i promoter in transfected HEK293 cells; type: cell-based; conditions: TF cis-plasmids plus Z12i-ffLuc reporter, rapamycin versus rapalog, all TF systems tested
Protocol: Cis plasmid constructs having the following elements, from 5′ to 3′ were constructed: promoter, nuclear localization signal (NLS), FRAPL (lipid kinase homolog having rapamycin binding domain), p65 of human NF-κB (transcriptional activation domain), IRES, zinc finger (DNA binding domain), 2 or 3 copies of FK506 binding protein as shown below, and a poly A.
These cis plasmids were tested for in HEK293 cells for the ability to induce expression of ffLuc reporter gene under the control of Z12i promoter, consisting of 12 ZFHD binding sites followed by minimal IL2 promoter. Briefly, HEK293 cells were transfected with cis-plasmids along with the reporter constructs. 24-72 hours post transfection, cells were treated with various concentrations of either rapamycin (sirolimus) or rapalog AP22594 as indicated in FIG. 5. Expression of ffLuc was assessed using dual luciferase detection kit from Promega according to manufacturer's instructions. […] Antibodies normally are secreted into supernatant buy the transfected cells. In this experiment, transfection was performed using lipofectamine according to the manufacturer's instructions, and induction was carried out the next day after transfection using indicated amounts of rapalog. At 72 hours post transfection, supernatants were harvested and expression of anti-SIV antibody was assessed using antigen specific ELISA or protein A ELISA. […]

[2] = IM AAV8 Z12i-immunoadhesin plus TF vectors in RAG KO mice, AP22594 induction, protein A ELISA; type: in vivo; conditions: post AAV8 administration
Protocol: RAG KO mice were purchased from Jackson labs. Z12i-2014A and TF plasmids were packaged into AAV8 vectors using triple transfection method. Vectors were titered using qPCR. […] First induction with AP22594 was carried out on day 13 after AAV8 administration. AP22594 was administered IP at a dose of 1 mg/kg. On day 21 post AAV8 administration, orbital bleeds were collected and the level of circulating 2011A antibody was measured by protein A ELISA. The data is presented on FIG. 8.

nasal airways = assay: Intranasal AAV9 regulatable ffLuc expression in mice after rapamycin induction (IVIS imaging); type: in vivo, C57BL/6 mice
Protocol: AAV2/9.Z12i.ffLuc and AAV2/9.CMV.Tf were used in this example. These vectors were prepared as described in S J Chen et al, Hu Gene Therapy, 24: 270-278 (August 2013). AAV2/9.Z12i.ffLuc contains:
C57BL/6 mice (6 to 8 weeks of age) were purchased from Charles River Laboratories (Wilmington, Mass.) and kept under pathogen-free conditions at the Animal Facility of the Translational Research Laboratories. Mice were anesthetized using an intraperitoneal (IP) injection of ketamine/xylazine. For vector administrations, mice were inoculated intranasally (IN) with […] in the right and left nostril for a total dose of 10^11 genome copies (GC) in 25 μL. All animal procedures were approved by the Institutional Animal Care and Use Committees of the University of Pennsylvania.
Topical (IN) application: mice were anaesthetized with ketamine/xylazine and 5 mins later 5 μL of rapamycin solution for a total dose of 10 mg/kg was delivered to the right and left nostril IN. Systemic (IP) application: mice were physically restrained and injected IP with 50 μL of a 1 mg/mL rapamycin solution.
Mice were anaesthetized with ketamine/xylazine and 5 mins later 10 μL of 15 mg/ml D-luciferin (Caliper, USA) was delivered to the right and left nostril IN. Five mins later mice were imaged using the IVIS® Xenogen imaging system [Perkin-Elmer]. Quantitation of signal was calculated using the Living Image® 3.0 Software.
The level of gene expression achieved in the nasal airways following rapamycin induction was examined. Briefly, C57B1/6 mice (n=5/group) were dosed with 10^11 GC of both AAV2/9.Z12i.ffLuc and AAV2/9.CMV.Tf in a volume of 25 μL (12.5 μL per nostril). As negative controls, groups of mice were dosed with a) AAV2/9.Z12i.ffLuc alone, b) AAV2/9.CMV.Tf alone and c) PBS mice. As a positive control for the maximal expression of ffLuc, mice (n=5) were injected with AAV2/9.CMV.ffluc. To maximize the safety of the inducible vector system we opted to restrict expression to the nasal epithelium by delivering rapamycin topically (directly to the nose) or systemically (IP).

NHP eyes = assay: Subretinal AAV8 regulatable antibody expression in NHP eyes (ELISA); type: in vivo, Macaca mulatta (rhesus monkeys); conditions: rapamycin IV
Protocol: For this experiment a 3 year old male Macaca mulatta (rhesus monkeys) was purchased from Covance Research Products, Inc.
For subretinal (SR) vector injections, a needle was inserted through a sclerotomy 2 mm posterior to the limbus at the 2 or 10 o'clock position. It was then advanced through the vitreous to penetrate the retina in the posterior pole. Under microscopic control, up to 100 μL of anterior chamber fluid was removed and 150 μL of viral vector solution diluted in phosphate buffered saline (PBS) was injected into the subretinal space, thereby raising a dome-shaped retinal detachment (bleb). The detachment covered a small fraction (approximately ⅛th) of the area of the retina in the macula. The NHP received AAV8 vectors injected subretinally into the left (OS) and right (OD) eyes. The two vectors that were injected were: AAV2/8.CMV.TF1Nc (alternate name for AAV2/8.CMV.TF) and AAV2/8.Z12i.AbH.FF2A.AbL.BGH. The vectors were mixed at 1:1 ratio at 10^11 GC and delivered SR in a total volume of 150 μL.
Macaques were induced at various times following the SR vector injection. Rapamycin (2 mg/kg) was delivered IV in a solution of 1.2% Tween 80, 27.1% Polyethylene Glycol, 71.7% Nuclease Free Water. At designated times post vector delivery, a tap was performed on the OD eye (baseline) and the NHP then injected IV with 2 mg/kg rapamycin. […]

[3] = stated as consistent with the time frame of decline; cited from earlier work
[4] = three separate IN rapamycin inductions over three months

## COC1CC2CCC(C)C(O)(O2)C(=O)C(=O)N2CCCCC2C(=O)OC(C(C)CC2CCC(O)C(OC)C2)CC(=O)C(C)C=C(C)C(O)C(OC)C(=O)C(C)CC(C)C=CC=CC=C1C (stereo not drawn) [AP22594, 28-epi-rapamycin]
[1]
  induction of transgene (ffLuc) expression: comparable levels of induction of transgene expression
[2]
  day induced expression returned to barely detectable: 49 days
  day induced expression started to decline: 35 days
[2]; data not shown
  day of peak induced expression: 28 days

## CO[C@H]1C[C@@H]2CC[C@@H](C)[C@@](O)(O2)C(=O)C(=O)N2CCCC[C@H]2C(=O)O[C@H]([C@H](C)C[C@@H]2CC[C@@H](O)[C@H](OC)C2)CC(=O)[C@H](C)/C=C(\C)[C@@H](O)[C@@H](OC)C(=O)[C@H](C)C[C@H](C)/C=C/C=C/C=C/1C [rapamycin]
Nasal airways; IN or IP rapamycin induction
  time for ffLuc expression to reach background levels: ≤ 7 days
  time until which ffLuc expression remained stable: 48 h
Nasal airways; IN or IP rapamycin induction, AAV2/9.Z12i.ffLuc plus AAV2/9.CMV.Tf IN
  time to maximal ffLuc expression after induction: ≤ 24 h
Nasal airways; rapamycin delivered to the nose or systemically
  signs of behavioral distress: did not exhibit any signs of behavioral distress
Nasal airways; [4]
  time at which expression began to decline: 72 h
  time to maximal induction: ≤ 24 h
  time to which induction was stable: 48 h
NHP eyes
  time to wane to background undetectable levels: ≤ 3 months
NHP eyes; several inductions over 4 years
  peak of antibody expression post induction: 14 days

B1: 2011A antibody: immunoadhesin expressed from the Z12i construct in AAV8 (protein)
chain: EVQLLESGPGLVKPSETLSLTCAVSGLSISSDFSWAWIRQTPGKALEYVGYIRGNTGDTYYNPSLKSRLTISKDTSKNQIYLNLSSVTAGDAAVYYCARDRVCDDDYGYYYTEVCFGLDSWGQGIVVTVSSGGGGSGGGGSGGGGSAELVMTQSPLSLSVAPGQTASISCRSSQSLDYANGNTYLSWFHQRPGQPPRRLIYQISNRDSGVPDRFSGSGAGTEFTLRISRMESDDVGIYYCGQGTTFPRTFGQGTKVEIKTCGGGSKPPTCPPCTSPELLGGPSVFLFPPKPKDTLMISRTPEVTCVVVDVSQEDPDVKFNWYVNGAEVHHAQTKPRETQYNSTYRVVSVLTVTHQDWLNGKEYTCKVSNKALPAPIQKTISKDKGQPREPQVYTLPPSREELTKNQVSLTCLVKGFYPSDIVVEWESSGQPENTYKTTPPVLDSDGSYFLYSKLTVDKSRWQQGNVFSCSVMHEALHNHYTQKSLSLSPGK
[3]
  antibody half-life: 1-2 weeks
